What was measured:
[1] = system: 6-hydroxydopamine-lesioned rats (nigroneostriatal-lesioned); assay: Turning behavior in 6-hydroxydopamine-lesioned rats (Table 2); assay type: in vivo, rat; conditions: for Average No. of turns per rat: first 15 minutes after end of latency period
Excerpt: In this test, nigroneostriatal-lesioned rats are employed, as prepared by the procedure of Ungerstedt and Arbuthnott, Brain Res, 24, 485 (1970). A compound having dopamine agonist activity causes the rats to turn in circles contralateral to the side of the lesion. After a latency period, which varies from compound to compound, the number of turns is counted over a 15-minute period.

prolactin secretion = assay: Inhibition of prolactin secretion in reserpine-treated male rats (Table 1); assay type: in vivo, rat (Sprague-Dawley); conditions: 50 mcg/kg i.p., 1 h after treatment
Procedure: As previously stated, the drugs of this invention as represented by formulas I and III above are D-2 dopamine agonists.
Adult male rats of the Sprague-Dawley strain weighing about 200 g. were housed in an air-conditioned room with controlled lighting (lights on 6 a.m.-8 p.m.) and fed lab chow and water ad libitum. Each rat received an intraperitoneal injection of 2.0 mg. of reserpine in aqueous suspension 18 hours before administration of the test drug. The purpose of the reserpine was to keep the rat prolactin levels uniformly elevated. The compound was dissolved in 10 percent ethanol, and injected intraperitoneally at doses of 0.017, 0.03, 0.17 and 0.3μ moles/kg. The compound was administered at each dose level to a group of 10 rats, and a control group of 10 intact males received an equivalent amount of 10 percent ethanol. One hour after treatment, all rats were killed by decapitation, and 150 μl aliquots of serum were assayed for prolactin.
The difference between the prolactin level of the treated rats and prolactin level of the control rats, divided by the prolactin level of the control rats, gives the percent inhibition of prolactin secretion attributable to the given dose. Inhibition percentages are given in Tables 1 and 2 below for compounds according to I or III above respectively. […]

Compound | % Rats exhibiting turning behaviour ([1]; dose 1000 mcg/kg) [%] | Average No. of turns per rat ([1]; dose 1000 mcg/kg) [turns per rat] | % Rats exhibiting turning behaviour ([1]; dose 20 mcg/kg) [%] | Average No. of turns per rat ([1]; dose 20 mcg/kg) [turns per rat] | % Rats exhibiting turning behaviour ([1]; dose 100 mcg/kg) [%] | Average No. of turns per rat ([1]; dose 100 mcg/kg) [turns per rat] | Percent Inhibition of Prolactin Secretion (prolactin secretion) [%]
CCCN1CCC[C@H]2Cc3nc(N4CCCC4)sc3C[C@@H]21 (racemic) [n-Pr, 1-pyrrolidinyl, FB, Trans-(±), Trans-(±)-2-(1-pyrrolidinyl)-5-n-propyl-4,4a,5,6,7,8,8a,9-octahydrothiazolo[4,5-g]quinoline] | 100 | 67 |  |  |  |  | 
CCCN1CCC[C@H]2Cc3nc(Br)sc3C[C@@H]21 (racemic) [n-Pr, Br, 2HCl, Trans-(±), Trans-(±)-2-bromo-5-n-propyl-4,4a,5,6,7,8,8a,9-octahydrothiazolo[4,5-g]quinoline] | 100 | 42 |  |  |  |  | 
CCCN1CCC[C@H]2Cc3ncsc3C[C@@H]21.Cl.Cl (racemic) [n-Pr, H, 2HCl, trans-(±), trans-(±)-5-n-propyl-4,4a,5,6,7,8,8a,9-octahydrothiazolo[4,5-g]quinoline dihydrochloride] | 100 | 100 | 25 | 16 | 100 | 44 | 
CCC[N+]1(C)CCCC2Cc3scnc3CC21.I.[I-] (racemic) [n-Pr, H, HI methiodide, trans-(±), trans-(±)-5-n-propyl-4,4a,5,6,7,8,8a,9-octahydrothiazolo[4,5-g]quinolinium methiodide hydroiodide] |  |  |  |  |  |  | 30
CCCN1CCC[C@H]2Cc3nc(N(C)C)sc3C[C@@H]21 (racemic) [n-Pr, N(CH3)2, 2HCl, trans (±), trans-(±)-2-dimethylamino-5-n-propyl-4,4a,5,6,7,8,8a,9-octahydrothiazolo[4,5-g]quinoline] | 100 | 62 |  |  |  |  | 
Br.Br.CCCN1CCC[C@H]2Cc3nc(N)sc3C[C@@H]21 (racemic) [n-Pr, NH2, 2HBr, trans (±), trans-(±)-2-amino-5-n-propyl-4,4a,5,6,7,8,8a,9-octahydrothiazolo[4,5-g]quinoline dihydrobromide] |  |  | 0 |  | 78 | 51 | 
CCCN1CCC[C@H]2Cc3nc(NC)sc3C[C@@H]21.Cl.Cl (racemic) [n-Pr, NHCH3, 2HCl, trans (±), trans-(±)-2-methylamino-5-n-propyl-4,4a,5,6,7,8,8a,9-octahydrothiazolo[4,5-g]-quinoline dihydrochloride] | 100 | 100 | 75 | 27 | 100 | 80 | 
CCCN1CCC[C@H]2Cc3nc(NC(C)=O)sc3C[C@@H]21 (racemic) [n-Pr, NHCOCH3, FB, trans-(±), Trans-(±)-2-acetylamino-5-n-propyl-4,4a,5,6,7,8,8a,9-octahydrothiazolo[4,5-g]quinoline] | 100 | 91 |  |  |  |  | 
CCCN1CCC[C@@H]2Cc3nc(N)sc3C[C@H]21 [n-Pr, NH2, 2HCl, trans-(-), 4aR,8aR-2-amino-5-n-propyl-4,4a,5,6,7,8,8a,9-octahydrothiazolo[4,5-g]quinoline] | 100 | 109 | 100 | 37 | 80 | 102 | 
